Experimental data published in US11028072B2, “2,4-diamino-6-ethylpyrimidine derivatives with antimalarial activities against Plasmodium falciparum” (National Science and Technology Development Agency, priority 2015, dated 2021).
Where a name gives a salt, the structure may show the parent alone.

Tested on: P. falciparum V1/S (N51I + C59R + S108 + I164L)
Experiment: microbe, parasite or virus in culture
Format: cell-based, Plasmodium falciparum
Details: Plasmodium falciparum; in vitro, quadruple mutant strain V1/S; read-out: IC50 P. falciparum V1/S
Source text: (§1) In Vitro Antimalarial Activites Against P. falciparum and Cytotoxicity Towards Mammalian Cells (Vero Cells)

Compound | IC50
CCc1nc(N)nc(N)c1-c1ccc(Cl)cc1 [Pyrimethamine, pyrimethamine, reference compound] | > 100 µM

Tested on: P. falciparum TM4/8.2 (wild type)
Experiment: microbe, parasite or virus in culture
Format: cell-based, Plasmodium falciparum
Details: Plasmodium falciparum; in vitro, wild-type strain TM4/8.2; read-out: IC50 P. falciparum TM4/8.2 (WT)
Source text: as §1

Compound | IC50
CCc1nc(N)nc(N)c1-c1ccc(Cl)cc1 [Pyrimethamine, pyrimethamine, reference compound] | 0.058 ± 0.03 µM

Tested on: not given
Experiment: not given
Details: not given

Compound | melting point
CCc1nc(N)nc(N)c1OCc1csc(-c2ccc(C(=O)O)cc2)n1 (as salt: hydrochloride) [Compound 75] | 213 to 214 °C
CCc1nc(N)nc(N)c1OCc1csc(-c2cccc(C)c2)n1 (as salt: hydrochloride) [Compound 61] | 232 to 233 °C
CCc1nc(N)nc(N)c1OCc1csc(-c2ccc(OCC(=O)OCc3ccccc3)cc2)n1 (as salt: hydrochloride) (hydrate or solvate) [Compound 72] | 178 to 180 °C
CCc1nc(N)nc(N)c1-c1cn(CCCOc2ccc(C(=O)OC)cc2)nn1 (as salt: hydrochloride) [Compound 12] | 211 to 212 °C
CCc1nc(N)nc(N)c1OCc1csc(-c2cccc(C(=O)OC)c2)n1 (as salt: hydrochloride) [Compound 65] | 224.5 to 226.5 °C
CCc1nc(N)nc(N)c1OCc1csc(-c2ccc(Cl)cc2)n1 (as salt: hydrochloride) [Compound 70] | 230 to 232 °C
CCc1nc(N)nc(N)c1OCc1coc(-c2cccc(OCC(=O)OCc3ccccc3)c2)n1 (as salt: hydrochloride) (hydrate or solvate) [Compound 53] | 163.5 to 164.5 °C
CCc1nc(N)nc(N)c1OCc1csc(-c2cccc([N+](=O)[O-])c2)n1 (as salt: hydrochloride) [Compound 62] | 235 to 236.5 °C
CCc1nc(N)nc(N)c1OCCc1csc(-c2ccccc2)n1 (as salt: hydrochloride) [Compound 76] | 215 to 217 °C
CCc1nc(N)nc(N)c1OCc1cn(-c2ccccc2)nn1 (as salt: hydrochloride) [Compound 13] | 212.5 to 213.5 °C
CCc1nc(N)nc(N)c1OCCc1cn(-c2ccc(C(=O)O)cc2)nn1 (as salt: hydrochloride) [Compound 22] | 270 to 271 °C
CCc1nc(N)nc(N)c1-c1cn(CCCc2ccccc2)nn1 (as salt: hydrochloride) [Compound 8] | 233 to 235 °C
CCc1nc(N)nc(N)c1OCc1cc(-c2ccccc2)no1 (as salt: hydrochloride) [Compound 33] | 221.5 to 222.5 °C
CCc1nc(N)nc(N)c1OCc1cn(-c2ccc(C(=O)OC)cc2)nn1 (as salt: hydrochloride) [Compound 18] | 197.5 to 199 °C
CCc1nc(N)nc(N)c1-c1cn(Cc2ccc(OC(=O)N(c3ccccc3)c3ccccc3)cc2)nn1 (as salt: hydrochloride) [Compound 6] | 138 to 139 °C
CCc1nc(N)nc(N)c1-c1cn(CCCOc2ccc(Cl)cc2)nn1 (as salt: hydrochloride) [Compound 11] | 222.5 to 223.5 °C
CCc1nc(N)nc(N)c1OCc1csc(-c2ccc(C(=O)OC)cc2)n1 (as salt: hydrochloride) [Compound 74] | 217 to 219 °C
CCc1nc(N)nc(N)c1OCCc1coc(-c2ccc(C(=O)O)cc2)n1 (as salt: hydrochloride) [Compound 59] | 330 to 332 °C
CCc1nc(N)nc(N)c1OCCCc1cn(-c2ccc(C(=O)OC)cc2)nn1 (as salt: hydrochloride) [Compound 24] | 208 to 209.5 °C
CCc1nc(N)nc(N)c1OCc1cc(-c2cccc([N+](=O)[O-])c2)no1 (as salt: hydrochloride) [Compound 39] | 179.5 to 181.5 °C
CCc1nc(N)nc(N)c1OCc1coc(-c2cccc(C)c2)n1 (as salt: hydrochloride) [Compound 51] | 225 to 226 °C
CCc1nc(N)nc(N)c1OCc1cn(Cc2ccc(O)cc2)nn1 (as salt: hydrochloride) [Compound 28] | 224.2 to 225.2 °C

Compound | melting point
CCc1nc(N)nc(N)c1OCc1cc(-c2cccc(C(F)(F)F)c2)no1 (as salt: hydrochloride) [Compound 37] | 224 to 225.5 °C
CCc1nc(N)nc(N)c1OCCCc1cc(-c2cccc(C(F)(F)F)c2)no1 (as salt: hydrochloride) [Compound 46] | 216.5 to 218 °C
CCc1nc(N)nc(N)c1OCc1cc(-c2ccc(C(F)(F)F)cc2)no1 (as salt: hydrochloride) [Compound 41] | 173 to 174.5 °C
CCc1nc(N)nc(N)c1OCCc1cn(-c2cccc(C(=O)O)c2)nn1 (as salt: hydrochloride) [Compound 20] | 246 to 247 °C
CCc1nc(N)nc(N)c1OCc1coc(-c2ccc(Cl)cc2)n1 (as salt: hydrochloride) [Compound 55] | 239 to 240 °C
CCc1nc(N)nc(N)c1OCc1cn(-c2cccc(C(=O)OC)c2)nn1 (as salt: hydrochloride) [Compound 15] | 211 to 212 °C
CCc1nc(N)nc(N)c1-c1cn(Cc2ccc(C(=O)OC)cc2)nn1 (as salt: hydrochloride) [Compound 4] | 222 to 223 °C
CCc1nc(N)nc(N)c1OCc1cn(-c2ccc([N+](=O)[O-])cc2)nn1 (as salt: hydrochloride) [Compound 17] | 209 to 210.5 °C
CCc1nc(N)nc(N)c1OCCCc1cn(-c2cccc(C(=O)O)c2)nn1 (as salt: hydrochloride) [Compound 23] | 230.5 to 231.5 °C
CCc1nc(N)nc(N)c1OCc1cn(Cc2cc(F)c(O)c(F)c2)nn1 (as salt: hydrochloride) [Compound 27] | 224.7 to 226 °C
CCc1nc(N)nc(N)c1OCc1csc(-c2ccc(OCC(=O)O)cc2)n1 (as salt: hydrochloride) (hydrate or solvate) [Compound 73] | 203.5 to 205.5 °C
CCc1nc(N)nc(N)c1OCc1csc(-c2ccccc2)n1 (as salt: hydrochloride) [Compound 60] | 220 to 222 °C
CCc1nc(N)nc(N)c1OCc1cn(Cc2ccc(C(=O)O)cc2)nn1 (as salt: hydrochloride) [Compound 29] | 223.8 to 224.8 °C
CCc1nc(N)nc(N)c1OCCCc1cc(-c2cccc(C(=O)OC)c2)no1 (as salt: hydrochloride) [Compound 48] | 188 to 189.5 °C
CCc1nc(N)nc(N)c1OCc1coc(-c2cccc([N+](=O)[O-])c2)n1 (as salt: hydrochloride) [Compound 52] | 221.5 to 222.5 °C
CCc1nc(N)nc(N)c1-c1cn(Cc2ccccc2)nn1 (as salt: hydrochloride) [Compound 3] | 255.5 to 256.5 °C
CCc1nc(N)nc(N)c1OCc1cc(-c2cccc(C(=O)O)c2)no1 (as salt: hydrochloride) [Compound 40] | 192 to 194 °C
CCc1nc(N)nc(N)c1OCc1cc(-c2ccc(Br)cc2)no1 (as salt: hydrochloride) [Compound 36] | 238 to 239.5 °C
CCc1nc(N)nc(N)c1-c1cn(CCc2ccccc2)nn1 (as salt: hydrochloride) [Compound 7] | 203 to 204.5 °C
CCc1nc(N)nc(N)c1OCc1cc(-c2ccc(OC)cc2)no1 (as salt: hydrochloride) [Compound 42] | 214 to 216 °C
CCc1nc(N)nc(N)c1OCc1cn(Cc2cccc(C(=O)O)c2)nn1 (as salt: hydrochloride) [Compound 26] | 170 to 171 °C

Tested on: not listed separately
Experiment: in vitro
Details: African green monkey
Source text: as §1

Compound | IC50
CCc1nc(N)nc(N)c1-c1ccc(Cl)cc1 [Pyrimethamine, pyrimethamine, reference compound] | > 10 µM
